Reference: patent US7897582B2, “Oligonucleotide compositions and methods for the modulation of the expression of B7 protein” (Isis Pharmaceuticals, Inc., priority 2003, dated 2011)
Strand notation (5' to 3'): a small letter for the sugar, then the base; units joined by * are phosphorothioate-linked, units joined directly phosphodiester-linked; [ ] holds rarer units or linkages, { } end groups; capitals alone tell only the bases. e = 2'-O-(2-methoxyethyl) (MOE); [5mC] = 5-methylcytosine; d = 2'-deoxy (DNA)

What was measured:
[1] = system: hB7-2 mRNA; test: Ribonuclease protection assay of hB7-2 mRNA in transfected COS-7 cells; format: cell-based, human
Method: For ribonuclease protection assays, cells were harvested 18 hours after completion of oligonucleotide treatment using a Totally RNA™ kit (Ambion, Austin, Tex.). The probes for the assay were generated from plasmids pcB7-2 (linearized by digestion with Bgl II) and pTRI-b-actin (Ambion Inc., Austin, Tex.). In vitro transcription of the linearized plasmid from the SP6 promoter was performed in the presence of α-^32P-UTP (800 Ci/mmole) yielding an antisense RNA complementary to the 3′ end of B7-2 (position 1044-1391). The probe was gel-purified after treatment with DNase I to remove DNA template. Ribonuclease protection assays were carried out using an RPA II™ kit (Ambion) according to the manufacturer's directions. Total RNA (5 μg) was hybridized overnight, at 42° C., with 10^5 cpm of the B7-2 probe or a control beta-actin probe. The hybridization reaction was then treated, at 37° C. for 30 minutes, with 0.4 units of RNase A and 2 units of RNase T1. Protected RNA was precipitated, resuspended in 10 μL of gel loading buffer and electrophoresed on a 6% acrylamide gel with 50% w/v urea at 20 W. The gel was then exposed and the lanes quantitated using a PhosphorImager (Molecular Dynamics, Sunnyvale, Calif.) essentially according to the manufacturer's instructions.
The oligonucleotides were screened as described in Example 4 except that the concentration of oligonucleotide was varied as shown in Table 13. Mismatch control oligonucleotides were included.

[2] = system: Human B7-1 mRNA; test: Human B7-1 mRNA expression in COS-7 cells, screened as in Example 4; format: cell-based; conditions: human B7-1 mRNA; Table 7
[3] = COS-7 cells, B7-2 mRNA, oligonucleotide dose 10 nM, basal = 100%
[4] = COS-7 cells, B7-2 mRNA, oligonucleotide dose 30 nM, basal = 100%
[5] = COS-7 cells, B7-2 mRNA, oligonucleotide dose 100 nM, basal = 100%
[6] = COS-7 cells, B7-2 mRNA, oligonucleotide dose 300 nM, basal = 100%
[7] = COS-7 cells, B7-2 mRNA, oligonucleotide dose 10 nM
[8] = COS-7 cells, B7-2 mRNA, oligonucleotide dose 30 nM

Row | Substance | % mRNA EXPRESSION ([1]; human B7-2 mRNA, Table 12) [%] | % mRNA EXPRESSION [2] [%] | % mRNA INHIBITION [2] [%] | also measured
1 | 22305 (e[5mC]*eA*eT*e[5mC]*eA*dG*dA*dT*d[5mC]*dT*dT*dT*d[5mC]*dA*dG*eG*eT*eA*eT*eA; antisense) [compound 22305] | 57 | – | – | % mRNA INHIBITION ([1]; human B7-2 mRNA, Table 12): 43%
2 | 22306 (eG*eG*e[5mC]*eT*eT*dT*dA*d[5mC]*dT*d[5mC]*dT*dT*dT*dA*dA*eT*eT*eA*eA*eA; antisense) [compound 22306] | 44 | – | – | –
3 | 22307 (eG*eA*eA*eA*eT*d[5mC]*dA*dA*dA*dA*dA*dG*dG*dT*dT*eG*e[5mC]*e[5mC]*e[5mC]*eA; antisense) [compound 22307] | 45 | – | – | –
4 | 22308 (eG*eG*eA*eG*eT*d[5mC]*d[5mC]*dT*dG*dG*dA*dG*d[5mC]*d[5mC]*d[5mC]*e[5mC]*e[5mC]*eT*eT*eA; antisense) [compound 22308] | 40 | – | – | –
5 | 22309 (eT*eT*eG*eG*e[5mC]*dA*dT*dA*d[5mC]*dG*dG*dA*dG*d[5mC]*dA*eG*eA*eG*e[5mC]*eT; antisense) [compound 22309] | 42 | – | – | –
6 | 22310 (eT*eG*eT*eG*e[5mC]*dT*d[5mC]*dT*dG*dA*dA*dG*dT*dG*dA*eA*eA*eA*eG*eA; antisense) [compound 22310] | 41 | – | – | –
7 | 22311 (eG*eG*e[5mC]*eT*eT*dG*dG*d[5mC]*d[5mC]*d[5mC]*dA*dT*dA*dA*dG*eT*eG*eT*eG*e[5mC]; antisense) [compound 22311] | 49 | – | – | –
8 | 22312 (e[5mC]*e[5mC]*eT*eA*eA*dA*dT*dT*dT*dT*dA*dT*dT*dT*d[5mC]*e[5mC]*eA*eG*eG*eT; antisense) [compound 22312] | 83 | – | – | % mRNA INHIBITION ([1]; human B7-2 mRNA, Table 12): 17%
9 | 22313 (eA*eG*eA*e[5mC]*eT*d[5mC]*d[5mC]*dA*d[5mC]*dT*dT*d[5mC]*dT*dG*dA*eG*eA*eT*eG*eT; antisense) [compound 22313] | – | 75 | 25 | –
10 | 22314 (eT*eG*eA*eA*eG*dA*dA*dA*dA*dA*dT*dT*d[5mC]*d[5mC]*dA*e[5mC]*eT*eT*eT*eT; antisense) [compound 22314] | – | 69 | 31 | –
11 | 22315 (eT*eT*eT*eA*eG*dT*dT*dT*d[5mC]*dA*d[5mC]*dA*dG*d[5mC]*dT*eT*eG*e[5mC]*eT*eG) [compound 22315] | – | 49 | – | –
12 | 22318 (eG*eT*eG*eA*eA*dA*dG*d[5mC]*d[5mC]*dA*dA*d[5mC]*dA*dA*dT*eT*eT*eG*eG*eA; antisense) [compound 22318] | – | 63 | 37 | –
13 | 22319 (e[5mC]*eA*eT*eG*eG*d[5mC]*dT*dT*d[5mC]*dA*dG*dA*dT*dG*d[5mC]*eT*eT*eA*eG*eG; antisense) [compound 22319] | – | 68 | 32 | –
14 | 22321 (eG*eA*e[5mC]*e[5mC]*eA*dG*d[5mC]*d[5mC]*dA*dG*d[5mC]*dA*d[5mC]*d[5mC]*dA*eA*eG*eA*eG*e[5mC]; antisense) [compound 22321] | – | 57 | 43 | –
15 | 22326 (antisense eG*eT*eA*eT*eG*dT*dG*d[5mC]*d[5mC]*d[5mC]*dT*d[5mC]*dG*dT*d[5mC]*eA*eG*eA*eT*eG) [compound 22326] | – | 62 | 38 | –
16 | 22328 (antisense eG*eG*eA*eA*eG*dT*d[5mC]*dA*dG*d[5mC]*dT*dT*dT*dG*dA*e[5mC]*eT*eG*eA*eT) [compound 22328] | – | 64 | 36 | –
17 | 24736 (antisense eG*e[5mC]*eT*e[5mC]*e[5mC]*dA*dA*dG*dT*dG*dT*d[5mC]*d[5mC]*d[5mC]*dA*eA*eT*eG*eA*eA) [compound 24736] | – | – | – | % mRNA EXPRESSION [1, 3]: 102%; % mRNA EXPRESSION [1, 4]: 101%; % mRNA EXPRESSION [1, 5]: 100%; % mRNA EXPRESSION [1, 6]: 107%
18 | 24737 (antisense eA*eG*eT*eA*eT*dG*dT*dT*dT*d[5mC]*dT*d[5mC]*dA*d[5mC]*dT*e[5mC]*e[5mC]*eG*eA*eT) [compound 24737] | – | – | – | % mRNA INHIBITION [1, 7]: 15%; % mRNA EXPRESSION [1, 3]: 85%; % mRNA INHIBITION [1, 8]: 5%; % mRNA EXPRESSION [1, 4]: 95%; % mRNA INHIBITION ([1]; COS-7 cells, B7-2 mRNA, oligonucleotide dose 100 nM): 13%; % mRNA EXPRESSION [1, 5]: 87%; % mRNA INHIBITION ([1]; COS-7 cells, B7-2 mRNA, oligonucleotide dose 300 nM): 1%; % mRNA EXPRESSION [1, 6]: 99%
19 | 24738 (antisense eT*eG*e[5mC]*e[5mC]*eA*dG*d[5mC]*dA*d[5mC]*d[5mC]*d[5mC]*dG*dG*dT*dA*e[5mC]*eG*eT*e[5mC]*e[5mC]) [compound 24738] | – | – | – | % mRNA INHIBITION [1, 7]: 19%; % mRNA EXPRESSION [1, 3]: 81%; % mRNA INHIBITION [1, 8]: 8%; % mRNA EXPRESSION [1, 4]: 92%; % mRNA EXPRESSION [1, 5]: 101%; % mRNA EXPRESSION [1, 6]: 124%
